# Measured values from the supplement of paper PMC10307832.
# Columns and labels:
# Experiment in all cases: relative viability (nuclei count vs DMSO), 5 days (fraction); higher = more cells survive
# RU-SKI 43 + Tozasertib = compound: CC[C@@H](C)CNCC(=O)N1CCC2=C([C@@H]1COC3=CC=CC(=C3)C)C=CS2 [RU-SKI 43] + Cc1cc(Nc2cc(N3CCN(C)CC3)nc(Sc3ccc(NC(=O)C4CC4)cc3)n2)n[nH]1 [Tozasertib] (partner 0.1 µM)
# Outline: (§1)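 Medians of duplicate plates are given as relative viability. That measure is the nuclei count in treated wells divided by the count in vehicle wells. Counts were taken on 4× images of lung cancer cell lines in 1536-well plates, 5 days after pin-tool dosing the day after seeding with one drug alone or a fixed anchor-drug dose plus five library-drug doses (not always all listed) in √10 steps.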
# MK-8033 + Olaparib = compound: Cn1cc(-c2cnc3ccc4ccc(CS(=O)(=O)NCc5ccccn5)cc4c(=O)c3c2)cn1 [MK-8033] + O=C(c1cc(Cc2n[nH]c(=O)c3ccccc23)ccc1F)N1CCN(C(=O)C2CC2)CC1 [Olaparib] (partner 8 µM)
# Outline: as §1
# MK-8033 + Pictilisib = compound: Cn1cc(-c2cnc3ccc4ccc(CS(=O)(=O)NCc5ccccn5)cc4c(=O)c3c2)cn1 [MK-8033] + CS(=O)(=O)N1CCN(Cc2cc3nc(-c4cccc5[nH]ncc45)nc(N4CCOCC4)c3s2)CC1 [Pictilisib] (partner 1 µM)
# Outline: as §1
# MK-8033 + Bortezomib = compound: Cn1cc(-c2cnc3ccc4ccc(CS(=O)(=O)NCc5ccccn5)cc4c(=O)c3c2)cn1 [MK-8033] + CC(C)C[C@H](NC(=O)[C@H](Cc1ccccc1)NC(=O)c1cnccn1)B(O)O [Bortezomib] (partner 0.002 µM)
# Outline: as §1
Cell Line,relative viability (RU-SKI 43 + Tozasertib; first compound 0.1 µM),relative viability (RU-SKI 43 + Tozasertib; first compound 0.3162 µM),relative viability (RU-SKI 43 + Tozasertib; first compound 1 µM),relative viability (RU-SKI 43 + Tozasertib; first compound 3.162 µM),relative viability (RU-SKI 43 + Tozasertib; first compound 10 µM),relative viability (MK-8033 + Olaparib; first compound 0.02 µM),relative viability (MK-8033 + Olaparib; first compound 0.06325 µM),relative viability (MK-8033 + Olaparib; first compound 0.2 µM),relative viability (MK-8033 + Olaparib; first compound 0.6325 µM),relative viability (MK-8033 + Olaparib; first compound 2 µM),relative viability (MK-8033 + Pictilisib; first compound 0.02 µM),relative viability (MK-8033 + Pictilisib; first compound 0.06325 µM),relative viability (MK-8033 + Pictilisib; first compound 0.2 µM),relative viability (MK-8033 + Pictilisib; first compound 2 µM),relative viability (MK-8033 + Bortezomib; first compound 0.02 µM),relative viability (MK-8033 + Bortezomib; first compound 0.06325 µM),relative viability (MK-8033 + Bortezomib; first compound 0.2 µM),relative viability (MK-8033 + Bortezomib; first compound 0.6325 µM),relative viability (MK-8033 + Bortezomib; first compound 2 µM),relative viability (MK-8033 + Pictilisib; first compound 0.6325 µM)
HCC-78,0.395,0.569,0.432,0.406,0.318,0.717,0.82,0.739,0.505,0.775,0.237,0.152,0.253,0.245,0.446,0.38,0.47,0.478,0.557,–
NCI-H441,0.597,0.542,0.541,0.736,0.554,0.628,0.446,0.56,0.529,0.59,0.45,0.446,0.416,0.444,0.396,0.309,0.378,0.67,0.929,0.446
NCI-H1299,–,–,–,–,–,1.01,0.967,0.927,1,0.982,0.759,0.862,0.748,0.617,1.03,0.997,1.03,1.05,1,0.799
LU99A,0.255,0.234,0.279,0.202,0.227,0.28,0.222,0.223,0.266,0.22,0.331,0.275,0.318,0.32,1.32,1.09,1.09,1.13,1.12,0.29
NCI-H1651,0.649,0.722,0.839,0.642,0.572,0.202,0.175,0.181,0.178,0.16,0.602,0.528,0.433,0.507,0.988,0.868,0.968,0.999,1.02,0.631
HARA,0.125,0.0842,0.118,0.111,0.108,0.558,0.542,0.761,0.732,0.639,0.445,0.395,0.335,0.419,1.07,1.1,1.13,1.17,1.07,0.382
RERF-LC-KJ,0.458,0.583,0.476,0.505,0.352,1.03,0.973,0.884,0.899,0.882,0.508,0.417,0.519,0.533,1.08,1.21,1.04,1.19,1.03,0.501
LCLC-103H,0.411,0.445,0.498,0.501,0.373,0.731,0.778,0.737,0.729,0.815,0.616,0.589,0.593,0.638,1.04,0.986,1.18,1.02,1.12,0.737
SK-LU-1,0.331,0.365,0.322,0.305,0.287,0.435,0.471,0.426,0.497,0.394,0.658,0.499,0.449,0.622,1.31,0.955,1.32,0.883,1.18,0.54
Calu-6,–,–,–,–,–,0.601,0.559,0.553,0.582,0.548,0.947,0.766,0.899,0.975,0.959,1.03,1.04,0.955,1.01,0.85
NCI-H1648,–,–,0.428,0.484,0.4,0.841,–,0.748,0.765,0.574,–,–,–,–,–,–,–,–,–,–
NCI-H522,0.566,0.544,0.581,0.537,0.524,0.544,0.491,0.607,0.685,0.632,–,–,–,–,–,–,–,–,–,–
LOU-NH91,0.659,0.646,0.672,0.702,0.6,0.893,0.679,0.842,0.913,0.882,0.531,–,0.498,0.506,0.455,0.559,0.511,0.554,0.495,0.548
HCC-366,0.098,0.0997,0.124,0.132,0.0872,0.361,0.344,0.328,0.34,0.323,0.151,0.0933,0.228,0.142,1.07,1,0.96,1.18,1.05,0.138
CAL-12T,0.296,0.403,0.303,0.26,0.243,0.61,0.692,0.71,0.718,0.756,0.515,0.323,0.339,0.388,0.935,0.946,0.876,1.16,1.01,0.436
PC-3 [JPC-3],0.815,0.953,1.02,0.959,0.773,1.08,–,1.04,1.16,1.09,0.666,–,0.655,0.762,0.813,–,0.778,0.848,0.943,0.56
NCI-H2087,0.264,0.233,0.294,0.225,0.225,0.593,0.57,0.535,0.492,0.622,0.912,0.814,0.737,0.692,0.877,0.77,0.828,0.687,0.829,0.994
NCI-H1395,0.866,0.694,0.774,0.789,0.692,0.448,0.362,0.463,0.469,0.462,0.726,0.579,0.683,0.628,–,–,–,–,–,0.606
